Measurements as given in patent publication US8173148B2, “Stabilized polymeric delivery system comprising a water-insoluble polymer and an organic liquid” (priority 2004, dated 2012).

Experiments:
Assay type in all cases: physicochemical
[1] = Effect of differing octreotide complexes on decomposition of PLGH in NMP, GPC (Example 7); details: 35 wt % 50/50 PLGH in NMP, over 25 days, FIG. 3
Method: Aliquots of a solution of 50/50 polylactide glycolide having an inherent viscosity of 0.57 dL/g and an average molecular weight of 45,000 were prepared so as to provide 35 wt % aliquots of the PLGH in N-methylpyrrolidone (NMP). To individual aliquots was added one of the following octreotide free base (OB)—complexes: OB-citrate; OB mesylate; OB-acetate; OB-Glucuronate. The OB-citrate complex was studied at several ratios: excess OB, 1:3 exchange, 1:1 exchange and citrate to pH 7. The average molecular weight of the PLGH in the solution was periodically determined over a period of 25 days by GPC analysis using pre-calibrated polylactide-glycolide standards for retention times. The following graph presents the results. […] The data determined by this experiment are presented graphically in FIG. 3.

[2] = Degradation of PLGH by octreotide acetate in NMP, average molecular weight by GPC (Example 4); details: ambient temperature, 2 hours
Method: A solution of 34 wt % of 50/50 carboxyl terminated polylactide glycolide (PLGH at a 1:1 ratio of lactide to glycolide) in N-methylpyrrolidone (NMP) was prepared and divided into several aliquots. To a 950 mg aliquot was added 57.01 mg of octreotide acetate (OA) to provide a solution of 5.66 wt % octreotide acetate in a 34 wt % solution of PLGH in NMP. Upon standing at ambient temperature for 2 hours, the aliquot with OA and a control aliquot containing only PLGH and NMP were analyzed for average molecular weight of the PLGH by GPC analysis. The retention times were correlated against predetermined molecular weight standards of polylactide-glycolide which had been calibrated by GC-mass spectroscopy.

[3] = Precipitation / formulation studies of GHRP-1/ATRIGEL formulations (Example 9); details: bulk GHRP-1 citrate solution, time needed for commercial manufacturing
Method: This formulation was identified as AL3922.02. […] Consequently, a fourth formulation (AL3922.04) was developed.
Table 1 summarizes the precipitation studies that were conducted for each formulation. The acronyms are identified as follows: GHRP-1 is a known […] mimicking growth hormone releasing peptide; DL2A is poly (DL) lactide-glycolide (75/25) having a terminal carboxyl group and an average molecular weight of about 13 kDa and an inherent viscosity of about 0.17 dL/g; NMP is N-methylpyrrolidone.

Molecule	degradation of PLGH average molecular weight by octreotide complexes [1]	average molecular weight of the PLGH ([2]; 5.66 wt % octreotide acetate in 34 wt % 50/50 PLGH in NMP, control aliquot 37,628 daltons)	degradation of the PLGH molecular weight ([2]; 34 wt % PLGH in NMP)	drug precipitation / remaining in solution (Comments) [3]
C[C@@H](O)[C@@H]1NC(=O)[C@H](CCCCN)NC(=O)[C@@H](Cc2c[nH]c3ccccc23)NC(=O)[C@H](Cc2ccccc2)NC(=O)[C@@H](NC(=O)[C@H](N)Cc2ccccc2)CSSC[C@@H](C(=O)N[C@H](CO)[C@@H](C)O)NC1=O (relative stereo) [octreotide acetate, L-cysteinamide, D-phenylalanyl-L-cysteinyl-L-phenylalanyl-D-tryptophyl-L-lysyl-L-threonyl-N-[2-hydroxy-1-(hydroxymethyl)propyl]-, cyclic (2→7)-disulfide; [R—(R*,R*)]]	immediate dramatic degradation	20,173 daltons	significant degradation	–
GHRP-1: growth hormone releasing peptide; seven amino acid peptide containing one lysine and one tryptophan (ATRIGEL)	–	–	–	tended to precipitate out of the solution over a couple of hours
